Common to all, as to assay type: in vivo
For one series, the system named is phenylquinone-writhing. Briefly: Analgesic action (mouse, phenylquinone-writhing test). Conditions: 10 mice. The source says:
|(mouse, phenylquinone-writhing test)

The test system of another series is Mouse. Briefly: Acute toxicity (mouse, oral, mortality). Conditions: 500 mg/kg oral; observed for 7 days after dosing, mortality after 8 days. The source says: The acute toxicity data for some representative isoxazolo[3,4-d]pyrimidines(I) are given below in Table 3.
(Mouse, observed for 7 days after dosing, mortality

Another series has as its system Carrageenin edema. Nature of the series: Antiinflammatory action (rat, Carrageenin edema). To be noted: 6 rats. The source says: Antiinflammatory action
(Rat, Carrageenin edema)
Background: Carrageenan injected into the paw causes an acute inflammation.

Setting [1] is: 25 mg/kg oral, first experiment, control 12.7 ± 2.5.
Where [2] appears, read: 12.5 mg/kg oral, first experiment, control 0.543 ± 0.032.
Setting [3] is: 25 mg/kg oral, first experiment, control 0.543 ± 0.032.
The mark [4] stands for this setting: 25 mg/kg oral, second experiment, control 17.3 ± 2.6.
Setting [5] is: 50 mg/kg oral, first experiment, control 12.7 ± 2.5.
The mark [6] stands for this setting: 50 mg/kg oral, second experiment, control 17.3 ± 2.6.
Setting [7] is: 6.25 mg/kg oral, second experiment, control 0.512 ± 0.017.
Setting [8] is: 12.5 mg/kg oral, second experiment, control 0.512 ± 0.017.
The mark [9] stands for this setting: 12.5 mg/kg oral, second experiment, control 17.3 ± 2.6.
Setting [10] is: 25 mg/kg oral, third experiment, control 13.7 ± 1.2.

Structures are written as SMILES.

`COc1ccc2c3c1O[C@H]1[C@@H](O)C=C[C@H]4[C@@H](C2)N(C)CC[C@@]341` [Codeine phosphate, reference compound]: in the series on phenylquinone-writhing (setting [1]), the “% Suppression” value came to 72.4% and the “Average number of writhings & standard error” value amounted to 3.5 ± 1.2.

In the case of `Cc1onc2c1c(=O)n(C)c(=O)n2C` [Ia, 3,5,7-Trimethyl-5H,7H-isoxazolo[3,4-d]pyrimidine-4,6-dione], in the series on Mouse, the Mortality is recorded as 1/5. Moreover, the “% Suppression” value with Carrageenin edema (setting [2]) was found to be 21.4%; in the series on Carrageenin edema (setting [3]) it was 35.5%; with phenylquinone-writhing (setting [1]), 54.3%; with phenylquinone-writhing (setting [4]), 67.1%; with phenylquinone-writhing (setting [5]), 55.9%; with phenylquinone-writhing (setting [6]) it was 93.1%. The “Volume of edema & standard error” value in the series with Carrageenin edema (setting [2]) was 0.427 ± 0.030 mL; in the series on Carrageenin edema (setting [3]), 0.350 ± 0.061 mL. Further, the “Average number of writhings & standard error” value in the series with phenylquinone-writhing (setting [1]) is 5.8 ± 2.4; with phenylquinone-writhing (setting [4]), 5.7 ± 1.5; in the series on phenylquinone-writhing (setting [5]) it was 5.6 ± 2.3; in the series with phenylquinone-writhing (setting [6]), 1.2 ± 0.5.

Turning to `Cn1c(=O)c2conc2n(C)c1=O` [Ib, 5,7-Dimethyl-5H,7H-isoxazolo[3,4-d]pyrimidine-4,6-dione], in the series with Mouse, the Mortality is listed as 1/5. Also, the “% Suppression” value in the series on Carrageenin edema (setting [7]) was 21.9%; with Carrageenin edema (setting [8]), 32.0%; in the series with phenylquinone-writhing (setting [9]), 54.9%; with phenylquinone-writhing (setting [1]) it was 63.8%; in the series with phenylquinone-writhing (setting [4]) it was 77.5%; in the series with phenylquinone-writhing (setting [5]), 92.1%. Also, the “Volume of edema & standard error” value was found to be 0.400 ± 0.037 mL with Carrageenin edema (setting [7]) and 0.348 ± 0.014 mL with Carrageenin edema (setting [8]). In addition, the “Average number of writhings & standard error” value in the series with phenylquinone-writhing (setting [9]) is given as 7.8 ± 1.9; with phenylquinone-writhing (setting [1]), 4.6 ± 1.2; in the series with phenylquinone-writhing (setting [4]), 3.9 ± 1.0; with phenylquinone-writhing (setting [5]), 1.0 ± 0.8.

Take `CCn1c(=O)c2conc2n(CC)c1=O` [Ic]: in the series on phenylquinone-writhing (setting [10]), the “% Suppression” value amounted to 47.4% and the “Average number of writhings & standard error” value came out at 7.2 ± 1.5.

Source of the values: patent US4202975A, “Isoxazolo[3,4-d]pyrimidines” (Takeda Chemical Industries, Ltd., priority 1976, dated 1980).
